Consider five molecules from US7776872B2, “Diaminopyrimidines as P2X3 and P2X2/3 modulators” (Roche Palo Alto LLC, priority 2005, dated 2010).

Data set [1] addresses T1, rat P2X3 receptor (Rattus norvegicus, UniProt P49654).
T1 construct: expressed in transfected cells; host or cells: CHO-K1
T1 sequence (P49654 1-397): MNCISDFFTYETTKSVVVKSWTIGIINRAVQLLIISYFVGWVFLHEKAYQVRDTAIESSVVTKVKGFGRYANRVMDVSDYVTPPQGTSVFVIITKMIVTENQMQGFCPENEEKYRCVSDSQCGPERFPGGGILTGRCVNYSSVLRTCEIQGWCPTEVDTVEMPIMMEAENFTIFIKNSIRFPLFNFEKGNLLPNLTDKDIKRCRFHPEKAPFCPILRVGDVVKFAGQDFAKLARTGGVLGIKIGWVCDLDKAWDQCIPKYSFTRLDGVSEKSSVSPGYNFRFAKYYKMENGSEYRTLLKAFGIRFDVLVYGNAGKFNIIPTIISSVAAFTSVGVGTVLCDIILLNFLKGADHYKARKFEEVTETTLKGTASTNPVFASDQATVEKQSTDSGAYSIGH
The data set can be described thus: P2X3 FLIPR (Fluorometric Imaging Plate Reader) assay, CHO-K1 cells. It counts as cell-based. The conditions noted are these: CHO-K1 cells transfected with rat P2X3; agonist α,β-meATP 1 μM; Fluo-3 calcium fluorescence. On the procedure: (§1) CHO-K1 cells were transfected with cloned rat P2X3 or human P2X2/3 receptor subunits and passaged in flasks. 18-24 hours before the FLIPR experiment, cells were released from their flasks, centrifuged, and resuspended in nutrient medium at 2.5×10^5 cells/ml. The cells were aliquoted into black-walled 96-well plates at a density of 50,000 cells/well and incubated overnight in 5% CO2 at 37° C. On the day of the experiment, cells were washed in FLIPR buffer (calcium- and magnesium-free Hank's balanced salt solution, 10 mM HEPES, 2 mM CaCl2, 2.5 mM probenecid; FB). Each well received 100 μl FB and 100 μl of the fluorescent dye Fluo-3 AM [2 μM final conc.]. […]
(§2) Test compounds (dissolved in DMSO at 10 mM and serially diluted with FB) or vehicle were added to each well (25 μl of a 4X solution) and allowed to equilibrate for 20 minutes at room temperature. The plates were then placed in the FLIPR and a baseline fluorescence measurement (excitation at 488 nm and emission at 510-570 nm) was obtained for 10 seconds before a 100 µl/well agonist or vehicle addition. […] Fluorescence was measured for an additional 2 minutes at 1 second intervals after agonist addition. A final addition of ionomycin (5 μM, final concentration) was made to each well of the FLIPR test plate to establish cell viability and maximum fluorescence of dye-bound cytosolic calcium. […]

The target of data set [2] is T2, human P2X2/3 receptor (Homo sapiens, UniProt P56373+Q9UBL9).
T2 construct: expressed in transfected cells; host or cells: CHO-K1
T2 sequence (Q9UBL9 1-471): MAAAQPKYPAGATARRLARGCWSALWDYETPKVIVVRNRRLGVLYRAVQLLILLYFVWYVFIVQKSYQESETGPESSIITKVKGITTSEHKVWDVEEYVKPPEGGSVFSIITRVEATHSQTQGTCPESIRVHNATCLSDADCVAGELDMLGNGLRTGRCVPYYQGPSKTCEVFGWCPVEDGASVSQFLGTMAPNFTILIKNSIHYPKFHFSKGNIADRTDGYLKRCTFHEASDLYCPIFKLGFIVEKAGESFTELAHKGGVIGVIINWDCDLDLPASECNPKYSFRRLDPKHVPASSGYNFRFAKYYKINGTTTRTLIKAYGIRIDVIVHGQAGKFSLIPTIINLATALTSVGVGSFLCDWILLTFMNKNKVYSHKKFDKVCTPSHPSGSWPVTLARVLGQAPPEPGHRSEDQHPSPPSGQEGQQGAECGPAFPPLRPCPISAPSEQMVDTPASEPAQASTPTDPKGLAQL
T2 sequence (P56373 1-397): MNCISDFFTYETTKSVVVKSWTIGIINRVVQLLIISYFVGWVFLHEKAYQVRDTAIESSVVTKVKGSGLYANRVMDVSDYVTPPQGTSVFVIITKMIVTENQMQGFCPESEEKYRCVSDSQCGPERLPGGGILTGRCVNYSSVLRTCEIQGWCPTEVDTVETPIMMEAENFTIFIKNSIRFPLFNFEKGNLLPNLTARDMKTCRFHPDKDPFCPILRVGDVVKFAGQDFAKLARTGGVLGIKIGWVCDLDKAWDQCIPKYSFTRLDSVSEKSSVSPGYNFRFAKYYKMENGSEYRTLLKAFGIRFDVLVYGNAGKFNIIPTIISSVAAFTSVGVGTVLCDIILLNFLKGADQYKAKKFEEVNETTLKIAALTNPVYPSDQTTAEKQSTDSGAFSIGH
The data set can be described thus: P2X2/3 FLIPR (Fluorometric Imaging Plate Reader) assay, CHO-K1 cells. It counts as cell-based. The conditions noted are these: CHO-K1 cells transfected with human P2X2/3; agonist α,β-meATP 5 μM; Fluo-3 calcium fluorescence. As for the experimental part: as §1, §2

A word on the melting point: it is the temperature, or range, at which the solid turns liquid. Turning to `CC(C)c1cc2ncccc2cc1Oc1cnc(N)nc1N` [5-(7-Isopropyl-quinolin-6-yloxy)-pyrimidine-2,4-diamine], the melting point lay in the range of 206.9 to 208.2 °C. The “pIC50 for the P2X3 receptor” value in data set [1] is “approximately 7.42”. Besides, the “pIC50 for the P2X2/3 receptor” value in data set [2] is recorded as “approximately 7.30”. Regarding `Cc1cccc2cc(C(C)C)c(Oc3cnc(N)nc3N)cc12` [Compound 1, 5(3-Isopropyl-8-methyl-naphthalen-2-yloxy)-pyrimidine-2,4-diamine], the melting point stood at 148 °C.

As for `COc1ccc2cc(Oc3cnc(N)nc3N)c(C(C)C)cc2c1` [Compound 4, 5-(3-Isopropyl-6-methoxy-naphthalen-2-yloxy)-pyrimidine-2,4-diamine], the melting point fell in the range of 170 to 172 °C. On the same count and under the same terms, the figure for `CC(C)c1cc2cccnc2cc1Oc1cnc(N)nc1N` [Compound 9, 5-(6-lsopropyl-quinolin-7-yloxy)-pyrimidine-2,4-diamine] is 276.3 to 278 °C; for `CC(C)c1cc2ncccc2cc1Oc1cnc(NC(CO)CO)nc1N` [Compound 11, 2-[4-Amino-5-(7-isopropyl-quinolin-6-yloxy)-pyrimidin-2-ylamino]-propane-1,3-diol] it is 171.9 to 174.4 °C.
